Data as given in patent US8691865B2 (AbbVie Inc., priority 2008, dated 2014).
Like-named read-outs stand apart in the source and are kept apart here.

Molecular target: human Cav2.2 (Homo sapiens, UniProt Q00975)
Assay: Assessment of calcium channel activity using FLIPR (Ca2+ influx in IMR32 cells)
Assay type: cell-based
Procedure: (i) In Vitro Methods—Assessment of Calcium Channel Activity Using FLIPR:
The IMR32 cells were maintained in MEM media containing 10% (v/v) FBS, 1% (v/v) antibiotic/antimitotic, 1% (v/v) sodium pyruvate and 1% (v/v) MEM NEAA. Following dissociation in 0.05% (v/v) trypsin/EDTA, cells were seeded into black 1×96-well plates (Corning Cellbind) at a density of 1−1.2×10^5 cells/well and incubated in the maintenance media above for 48 hours at 37° C. […] To determine the IC50 values, the percent inhibition of the compound at each concentration was determined relative to the activity in the absence of inhibitor, and data was fitted using non-linear regression sigmoidal dose response curve analysis with GraphPad Prism®.

[1] = read-out: IC50 (μM) or percent inhibition (* indicates 3 minute incubation, otherwise 60 minute), IC50, 60 minute pre-incubation with compound, IMR32 cells, 80 mM KCl depolarization

Chain of human Cav2.2 (Q00975 whole entry): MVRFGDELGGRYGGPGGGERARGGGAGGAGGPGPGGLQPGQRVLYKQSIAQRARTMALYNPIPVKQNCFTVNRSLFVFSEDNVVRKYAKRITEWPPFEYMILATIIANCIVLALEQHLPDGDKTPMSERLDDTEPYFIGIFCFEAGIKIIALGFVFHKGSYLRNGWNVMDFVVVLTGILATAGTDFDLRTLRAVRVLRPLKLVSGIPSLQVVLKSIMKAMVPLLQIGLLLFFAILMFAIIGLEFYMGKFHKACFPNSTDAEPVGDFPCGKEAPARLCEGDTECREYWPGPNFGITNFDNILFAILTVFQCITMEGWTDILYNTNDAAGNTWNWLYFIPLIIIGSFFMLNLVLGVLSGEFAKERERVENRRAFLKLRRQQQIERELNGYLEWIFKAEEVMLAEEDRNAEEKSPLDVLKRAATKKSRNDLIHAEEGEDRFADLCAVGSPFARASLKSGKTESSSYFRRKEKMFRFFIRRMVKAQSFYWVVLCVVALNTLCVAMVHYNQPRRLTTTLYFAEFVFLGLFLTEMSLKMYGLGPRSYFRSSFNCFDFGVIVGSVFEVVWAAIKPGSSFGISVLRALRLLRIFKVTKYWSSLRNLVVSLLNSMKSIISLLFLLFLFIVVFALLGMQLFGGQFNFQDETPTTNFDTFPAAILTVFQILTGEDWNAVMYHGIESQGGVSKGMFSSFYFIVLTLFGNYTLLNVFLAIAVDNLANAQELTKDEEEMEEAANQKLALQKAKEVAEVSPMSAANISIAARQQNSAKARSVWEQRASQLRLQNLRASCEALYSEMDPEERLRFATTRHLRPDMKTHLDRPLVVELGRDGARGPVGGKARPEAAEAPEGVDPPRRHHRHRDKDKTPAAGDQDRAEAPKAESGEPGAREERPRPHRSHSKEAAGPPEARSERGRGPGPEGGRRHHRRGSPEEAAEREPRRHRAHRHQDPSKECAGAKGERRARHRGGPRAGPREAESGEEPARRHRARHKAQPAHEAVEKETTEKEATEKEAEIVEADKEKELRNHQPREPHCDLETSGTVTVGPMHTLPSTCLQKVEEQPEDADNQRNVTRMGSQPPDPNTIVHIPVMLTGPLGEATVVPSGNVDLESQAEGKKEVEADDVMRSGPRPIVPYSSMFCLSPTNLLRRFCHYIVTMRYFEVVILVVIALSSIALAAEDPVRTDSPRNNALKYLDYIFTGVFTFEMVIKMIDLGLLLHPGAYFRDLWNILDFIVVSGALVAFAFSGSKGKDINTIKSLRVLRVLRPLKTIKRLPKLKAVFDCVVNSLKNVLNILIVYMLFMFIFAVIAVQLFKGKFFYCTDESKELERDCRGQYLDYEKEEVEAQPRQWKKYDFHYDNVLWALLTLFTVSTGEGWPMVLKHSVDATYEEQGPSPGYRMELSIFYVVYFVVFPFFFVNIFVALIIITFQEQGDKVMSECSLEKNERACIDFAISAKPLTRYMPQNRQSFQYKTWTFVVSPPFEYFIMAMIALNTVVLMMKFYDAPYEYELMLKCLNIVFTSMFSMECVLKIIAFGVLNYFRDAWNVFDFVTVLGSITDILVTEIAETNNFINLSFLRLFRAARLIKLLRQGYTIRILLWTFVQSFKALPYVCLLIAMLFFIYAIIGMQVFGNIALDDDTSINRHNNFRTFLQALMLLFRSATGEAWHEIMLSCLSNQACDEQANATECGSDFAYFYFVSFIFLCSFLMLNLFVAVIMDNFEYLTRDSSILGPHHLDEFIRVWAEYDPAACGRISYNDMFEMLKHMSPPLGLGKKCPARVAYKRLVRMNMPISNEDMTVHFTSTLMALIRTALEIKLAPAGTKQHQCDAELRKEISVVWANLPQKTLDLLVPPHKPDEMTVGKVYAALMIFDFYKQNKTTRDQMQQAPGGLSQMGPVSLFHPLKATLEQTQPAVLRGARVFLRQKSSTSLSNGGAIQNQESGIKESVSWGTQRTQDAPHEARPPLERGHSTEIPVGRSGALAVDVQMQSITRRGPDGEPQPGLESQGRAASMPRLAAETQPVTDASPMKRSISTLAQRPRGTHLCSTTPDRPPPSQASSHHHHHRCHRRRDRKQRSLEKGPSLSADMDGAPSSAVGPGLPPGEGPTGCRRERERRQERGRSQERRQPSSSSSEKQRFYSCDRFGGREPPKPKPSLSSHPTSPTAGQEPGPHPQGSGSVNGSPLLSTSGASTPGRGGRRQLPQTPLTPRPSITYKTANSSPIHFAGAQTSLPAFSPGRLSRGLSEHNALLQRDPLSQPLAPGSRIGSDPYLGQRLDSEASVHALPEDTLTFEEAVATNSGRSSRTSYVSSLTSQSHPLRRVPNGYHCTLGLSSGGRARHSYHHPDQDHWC
Chain of human Cav2.2 (P54289 25-956 partner limits assumed): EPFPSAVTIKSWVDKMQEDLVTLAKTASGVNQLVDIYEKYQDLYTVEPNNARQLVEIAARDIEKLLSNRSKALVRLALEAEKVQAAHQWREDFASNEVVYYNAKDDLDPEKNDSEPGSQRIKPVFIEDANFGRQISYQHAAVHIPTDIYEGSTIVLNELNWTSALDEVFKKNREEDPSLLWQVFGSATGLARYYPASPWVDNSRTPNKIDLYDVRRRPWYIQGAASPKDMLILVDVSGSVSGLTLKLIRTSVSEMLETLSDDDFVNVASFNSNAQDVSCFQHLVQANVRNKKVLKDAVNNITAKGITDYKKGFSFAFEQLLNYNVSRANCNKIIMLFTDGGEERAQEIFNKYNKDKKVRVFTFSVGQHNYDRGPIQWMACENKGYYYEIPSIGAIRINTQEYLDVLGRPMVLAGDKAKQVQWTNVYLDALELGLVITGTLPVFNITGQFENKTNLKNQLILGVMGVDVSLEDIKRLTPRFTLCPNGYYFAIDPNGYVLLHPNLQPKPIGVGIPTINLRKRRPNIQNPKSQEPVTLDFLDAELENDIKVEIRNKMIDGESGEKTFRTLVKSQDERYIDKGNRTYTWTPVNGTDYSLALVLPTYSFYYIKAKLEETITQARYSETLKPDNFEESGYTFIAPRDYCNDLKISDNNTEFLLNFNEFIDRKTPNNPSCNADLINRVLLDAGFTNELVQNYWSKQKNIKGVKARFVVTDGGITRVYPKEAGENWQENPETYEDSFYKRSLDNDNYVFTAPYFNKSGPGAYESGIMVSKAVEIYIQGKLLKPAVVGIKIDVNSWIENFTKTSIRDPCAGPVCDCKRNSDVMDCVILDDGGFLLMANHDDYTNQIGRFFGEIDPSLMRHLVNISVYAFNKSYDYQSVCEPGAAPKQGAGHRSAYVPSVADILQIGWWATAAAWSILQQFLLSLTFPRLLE
Chain of human Cav2.2 (P54289 957-1103 partner limits assumed): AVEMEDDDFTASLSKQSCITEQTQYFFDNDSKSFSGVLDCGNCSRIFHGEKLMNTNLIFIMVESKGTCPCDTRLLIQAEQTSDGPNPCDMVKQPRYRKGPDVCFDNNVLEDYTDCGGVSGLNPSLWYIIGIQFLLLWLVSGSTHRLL
Chain of human Cav2.2 (P54284 whole entry partner): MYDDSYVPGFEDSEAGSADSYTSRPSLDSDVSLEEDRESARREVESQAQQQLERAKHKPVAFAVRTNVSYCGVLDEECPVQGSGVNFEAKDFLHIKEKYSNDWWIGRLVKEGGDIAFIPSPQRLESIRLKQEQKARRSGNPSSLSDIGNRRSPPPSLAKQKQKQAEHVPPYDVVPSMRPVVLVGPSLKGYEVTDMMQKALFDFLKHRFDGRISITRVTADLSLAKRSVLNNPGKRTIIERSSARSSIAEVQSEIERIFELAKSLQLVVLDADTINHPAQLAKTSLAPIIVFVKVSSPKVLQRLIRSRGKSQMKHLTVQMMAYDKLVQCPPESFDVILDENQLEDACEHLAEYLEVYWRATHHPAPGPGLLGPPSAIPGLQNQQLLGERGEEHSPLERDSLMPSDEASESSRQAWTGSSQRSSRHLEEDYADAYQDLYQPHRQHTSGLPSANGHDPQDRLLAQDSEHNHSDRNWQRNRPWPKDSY

| Compound | IC50 [1] | IC50 |
| --- | --- | --- |
| O=C(N[C@@H]1CC[C@H]2CN(CCC(c3ccc(F)cc3)c3ccc(F)cc3)C[C@H]21)C(C1CCCCC1)C1CCCCC1 [Example 80, N-{(3aS,4R,6aR)-2-[3,3-bis(4-fluorophenyl)propyl]octahydrocyclopenta[c]pyrrol-4-yl}-2,2-dicyclohexylacetamide] | 1.67 µM |  |
| N[C@@H](CC1CC1)C(=O)N[C@H]1CC[C@@H]2CN(c3ccc(OC(F)(F)F)cc3)C[C@@H]21 [Example 776, 3-cyclopropyl-N-{(3aR,4S,6aS)-2-[4-(trifluoromethoxy)phenyl]octahydrocyclopenta[c]pyrrol-4-yl}-L-alaninamide] |  | 2.53 µM |
| O=C(N[C@H]1CC[C@@H]2CN(c3ncccc3C(F)(F)F)C[C@@H]21)[C@@H]1C[C@@H](F)CN1 [Example 660, (4R)-4-fluoro-N-{(3aR,4S,6aS)-2-[3-(trifluoromethyl)pyridin-2-yl]octahydrocyclopenta[c]pyrrol-4-yl}-L-prolinamide] |  | 7.03 µM |
| (3aR,4S,6aS)-N-[(5-fluoro-1-methyl-1H-indol-2-yl)methyl]-2-[6-(trifluoromethyl)pyridin-2-yl]octahydrocyclopenta[c]pyrrol-4-amine [Example 748] | 0.81 µM |  |
| CC(C)(C)C[C@H](NC(=O)OC(C)(C)C)C(=O)N[C@H]1CC[C@@H]2CN(C(=O)[C@H](CC(C)(C)C)NC(=O)OC(C)(C)C)C[C@@H]21 [Example 463, tert-butyl(S)-1-((3aR,4S,6aS)-4-((S)-2-(tert-butoxycarbonylamino)-4,4-dimethylpentanamido)hexahydrocyclopenta[c]pyrrol-2(1H)-yl)-4,4-dimethyl-1-oxopentan-2-ylcarbamate] |  | 2.03 µM |
| Cn1c(CN[C@H]2CC[C@@H]3CN(c4cccc(C(F)(F)F)n4)C[C@@H]32)nc2ccccc21 [Example 731, (3aR,4S,6aS)-N-[(1-methyl-1H-benzimidazol-2-yl)methyl]-2-[6-(trifluoromethyl)pyridin-2-yl]octahydrocyclopenta[c]pyrrol-4-amine] |  | 0.94 µM |
| Fc1ccc2[nH]cc(CN[C@H]3CC[C@@H]4CN(c5cccc(C(F)(F)F)n5)C[C@@H]43)c2c1 [Example 678, (3aR,4S,6aS)-N-[(5-fluoro-1H-indol-3-yl)methyl]-2-[6-(trifluoromethyl)pyridin-2-yl]octahydrocyclopenta[c]pyrrol-4-amine] |  | 0.69 µM |
| O=C(N[C@H]1CC[C@H]2CN(CCCc3cccc(Cl)c3)C[C@H]21)C(C1CCCCC1)C1CCCCC1 [Example 67, N-{(3aS,4S,6aR)-2-[3-(3-chlorophenyl)propyl]octahydrocyclopenta[c]pyrrol-4-yl}-2,2-dicyclohexylacetamide] | 1.32 µM |  |
| Fc1ccc2nc(CN[C@H]3CC[C@@H]4CN(c5cccc(C(F)(F)F)n5)C[C@@H]43)[nH]c2c1 [Example 691, (3aR,4S,6aS)-N-[(6-fluoro-1H-benzimidazol-2-yl)methyl]-2-[6-(trifluoromethyl)pyridin-2-yl]octahydrocyclopenta[c]pyrrol-4-amine] |  | 0.61 µM |
| O=S(=O)(N[C@@H]1CC[C@H]2CN(Cc3cc(C(F)(F)F)cc(C(F)(F)F)c3)C[C@H]21)c1cccc(C(F)(F)F)c1 [Example 192, N-{(3aS,4R,6aR)-2-[3,5-bis(trifluoromethyl)benzyl]octahydrocyclopenta[c]pyrrol-4-yl}-3-(trifluoromethyl)benzenesulfonamide] | 2.27 µM |  |
| CCC[C@@H](C(=O)N[C@H]1CC[C@@H]2CN(S(=O)(=O)c3cccs3)C[C@@H]21)N(C)C(=O)OC(C)(C)C [Example 531, tert-butyl methyl((S)-1-oxo-1-((3aR,4S,6aS)-2-(thiophen-2-ylsulfonyl)octahydrocyclopenta[c]pyrrol-4-ylamino)pentan-2-yl)carbamate] |  | 3.49 µM |
| CN[C@@H](CC(C)C)C(=O)N[C@H]1CC[C@@H]2CN(c3ccc(C#N)cc3)C[C@@H]21 [Example 647, N-[(3aR,4S,6aS)-2-(4-cyanophenyl)octahydrocyclopenta[c]pyrrol-4-yl]-N^2-methyl-L-leucinamide] |  | 3.77 µM |
| O=C(N[C@H]1CC[C@H]2CN(Cc3ccc(F)c(C(F)(F)F)c3)C[C@H]21)C(C1CCCCC1)C1CCCCC1 [Example 57, 2,2-dicyclohexyl-N-{(3aS,4S,6aR)-2-[4-fluoro-3-(trifluoromethyl)benzyl]octahydrocyclopenta[c]pyrrol-4-yl}acetamide] | 0.29 µM |  |
| CC(C)(C)OC(=O)N1CCCC[C@H]1C(=O)N[C@@H]1CC[C@H]2CN(Cc3ccccc3)C[C@H]21 [Example 231, tert-butyl(2S)-2-({[(3aS,4R,6aR)-2-benzyloctahydrocyclopenta[c]pyrrol-4-yl]amino}carbonyl)piperidine-1-carboxylate] | 6.13 µM |  |
| CC(C)(C)C[C@H](N)C(=O)N[C@H]1CC[C@@H]2CN(C(=O)[C@@H](N)Cc3ccccc3)C[C@@H]21 [Example 465, 4-methyl-N^1-[(3aR,4S,6aS)-2-L-phenylalanyloctahydrocyclopenta[c]pyrrol-4-yl]-L-leucinamide] |  | > 30 µM |
| FC(F)(F)c1ccc(-c2nc(CN[C@H]3CC[C@@H]4CN(c5cccc(C(F)(F)F)n5)C[C@@H]43)c[nH]2)cc1 [Example 742, (3aR,4S,6aS)-N-({2-[4-(trifluoromethyl)phenyl]-1H-imidazol-4-yl}methyl)-2-[6-(trifluoromethyl)pyridin-2-yl]octahydrocyclopenta[c]pyrrol-4-amine] |  | 1.3 µM |
| Fc1ccc2[nH]c(CN[C@H]3CC[C@@H]4CN(c5ccc(OC(F)(F)F)cc5)C[C@@H]43)cc2c1 [Example 716, (3aR,4S,6aS)-N-[(5-fluoro-1H-indol-2-yl)methyl]-2-[4-(trifluoromethoxy)phenyl]octahydrocyclopenta[c]pyrrol-4-amine] |  | 8.15 µM |
| Cn1c(CN[C@H]2CC[C@@H]3CN(c4cccc(C(F)(F)F)n4)C[C@@H]32)cc2ccccc21 [Example 720, (3aR,4S,6aS)-N-[(1-methyl-1H-indol-2-yl)methyl]-2-[6-(trifluoromethyl)pyridin-2-yl]octahydrocyclopenta[c]pyrrol-4-amine] |  | 1.44 µM |
| O=C(N[C@H]1CC[C@@H]2CN(c3cccc(C(F)(F)F)n3)C[C@@H]21)c1cc(C2CC2)n[nH]1 [Example 583, 3-cyclopropyl-N-{(3aR,4S,6aS)-2-[6-(trifluoromethyl)pyridin-2-yl]octahydrocyclopenta[c]pyrrol-4-yl}-1H-pyrazole-5-carboxamide] |  | 1.12 µM |
| CC(C)C[C@H](NC(=O)NC(C)(C)C)C(=O)N[C@@H]1CC[C@H]2CN(Cc3cccc(C(F)(F)F)c3)C[C@H]21 [Example 180, N^2-[(tert-butylamino)carbonyl]-N^1-{(3aS,4R,6aR)-2-[3-(trifluoromethyl)benzyl]octahydrocyclopenta[c]pyrrol-4-yl}-L-leucinamide] | 1.83 µM |  |
| CN[C@@H](CC(C)C)C(=O)N[C@H]1CC[C@@H]2CN(Cc3ccc(C(F)(F)F)cc3)C[C@@H]21 [Example 380, N^2-methyl-N^1-{(3aR,4S,6aS)-2-[4-(trifluoromethyl)benzyl]octahydrocyclopenta[c]pyrrol-4-yl}-L-leucinamide] | 9.71 µM |  |
| CC(C)(C)C(C(=O)N[C@@H]1CC[C@H]2CN(Cc3cccc(C(F)(F)F)c3)C[C@H]21)c1ccccc1 (relative stereo) [Example 147, 3,3-dimethyl-2-phenyl-N-{(3aS*,4R*,6aR*)-2-[3-(trifluoromethyl)benzyl]octahydrocyclopenta[c]pyrrol-4-yl}butanamide] | 0.51 µM |  |
| Cc1ccc(C(=O)N[C@H]2CC[C@@H]3CN(c4cccc(C(F)(F)F)n4)C[C@@H]32)o1 [Example 576, 5-methyl-N-{(3aR,4S,6aS)-2-[6-(trifluoromethyl)pyridin-2-yl]octahydrocyclopenta[c]pyrrol-4-yl}-2-furamide] |  | 1.08 µM |
| CC(C)C(C(=O)N[C@H]1CC[C@@H]2CN(Cc3ccc(C(C)(C)C)cc3)C[C@@H]21)c1ccccc1 (stereo partly drawn) [Example 95, N-[(3aR,4S,6aS)-2-(4-tert-butylbenzyl)octahydrocyclopenta[c]pyrrol-4-yl]-3-methyl-2-phenylbutanamide] | 1.04 µM |  |
| O=S(=O)(c1cccc(C(F)(F)F)c1)N(C1CC1)[C@H]1CC[C@H]2CN(Cc3ccccc3)C[C@H]21 (relative stereo) [Example 199, N-[(3aS*,4S*,6aR*)-2-benzyloctahydrocyclopenta[c]pyrrol-4-yl]-N-cyclopropyl-3-(trifluoromethyl)benzenesulfonamide] | 2.21 µM |  |
| CC(C)C[C@H](NCC(C)(C)C)C(=O)N[C@H]1CC[C@@H]2CN(S(=O)(=O)c3ccc(F)cc3)C[C@@H]21 [Example 261, N^1-{(3aR,4S,6aS)-2-[(4-fluorophenyl)sulfonyl]octahydrocyclopenta[c]pyrrol-4-yl}-N^2-neopentyl-L-leucinamide] |  | 1.25 µM |
| CC[C@H](C)[C@H](NC)C(=O)N[C@@H]1CC[C@H]2CN(Cc3ccccc3)C[C@H]21 [Example 354, N^1-[(3aS,4R,6aR)-2-benzyloctahydrocyclopenta[c]pyrrol-4-yl]-N^2-methyl-L-isoleucinamide] |  | > 30 µM |
| CC(C)C[C@@H](C(=O)N[C@@H]1CC[C@@H]2CN(Cc3ccccc3)C[C@@H]21)N(C)C(=O)OC(C)(C)C [Example 241] | 2.08 µM |  |
| O=C(CCC(c1ccc(F)cc1)c1ccc(F)cc1)N[C@H]1CC[C@H]2CN(Cc3cccc(C(F)(F)F)c3)C[C@H]21 (relative stereo) [Example 134, 4,4-bis(4-fluorophenyl)-N-{(3aS*,4S*,6aR*)-2-[3-(trifluoromethyl)benzyl]octahydrocyclopenta[c]pyrrol-4-yl}butanamide] | 1.15 µM |  |
